Data published in patent US7550456B2, “Substituted aryl cycloalkanoyl derivatives and methods of their use” (Wyeth, priority 2003, dated 2009).
pEC50: −log10 of the molar value. Counter-ions that a name gives are not always drawn.

Target: T1, human hNET (Homo sapiens, UniProt P23975)
T1 construct: expressed in transfected cells; host or cells: MDCK-Net6 (MDCK cells, stably transfected)
Experiment: Norepinephrine (NE) uptake assay in MDCK-Net6 cells
Assay type: cell-based
Settings: 1 μM test compound, [3H]NE uptake, dihydrochloride, 1 µM
Protocol: Cells were plated at 300,000/T75 flask and cells were split twice weekly. […] Cells were plated at 250,000 cells/T75 flask and split twice weekly.
Norepinephrine (NE) Uptake Assay
On day 1, cells were plated at 3,000 cells/well in growth medium and maintained in a cell incubator (37° C., 5% CO2). On day 2, growth medium was replaced with 200 μl of assay buffer (25 mM HEPES; 120 mM NaCl; 5 mM KCl; 2.5 mM CaCl2; 1.2 mM MgSO4; 2 mg/ml glucose (pH 7.4, 37° C.)) containing 0.2 mg/ml ascorbic acid and 10 μM pargyline. Plates containing cells with 200 μl of assay buffer were equilibrated for 10 minutes at 37° C. prior to addition of compounds. A stock solution of desipramine was prepared in DMSO (10 mM) and delivered to triplicate wells containing cells for a final test concentration of 1 μM. Data from these wells were used to define non-specific NE uptake (minimum NE uptake). Test compounds were prepared in DMSO (10 mM) and diluted in assay buffer according to test range (1 to 10,000 nM). Twenty-five microliters of assay buffer (maximum NE uptake) or test compound were added directly to triplicate wells containing cells in 200 μl of assay buffer. The cells in assay buffer with test compounds were incubated for 20 minutes at 37° C. […] The reaction was terminated by decanting the supernatant from the plate. The plates containing cells were washed twice with 200 μl assay buffer (37° C.) to remove free radioligand. The plates were then inverted, left to dry for 2 minutes, then reinverted and air-dried for an additional 10 minutes. The cells were lysed in 25 μl of 0.25 N NaOH solution (4° C.), placed on a shake table and vigorously shaken for 5 minutes. After cell lysis, 75 μl of scintillation cocktail was added to each well and the plates were sealed with film tape. The plates were returned to the shake table and vigorously shaken for a minimum of 10 minutes to ensure adequate partitioning of organic and aqueous solutions. The plates were counted in a Wallac Microbeta counter (PerkinElmer) to collect the raw cpm data.
For each experiment, a data stream of cpm values collected from the Wallac Microbeta counter was downloaded to a Microsoft Excel statistical application program. Calculations of EC50 values were made using the transformed-both-sides logistic dose response program written by Wyeth Biometrics Department.

T1 sequence (P23975 whole entry): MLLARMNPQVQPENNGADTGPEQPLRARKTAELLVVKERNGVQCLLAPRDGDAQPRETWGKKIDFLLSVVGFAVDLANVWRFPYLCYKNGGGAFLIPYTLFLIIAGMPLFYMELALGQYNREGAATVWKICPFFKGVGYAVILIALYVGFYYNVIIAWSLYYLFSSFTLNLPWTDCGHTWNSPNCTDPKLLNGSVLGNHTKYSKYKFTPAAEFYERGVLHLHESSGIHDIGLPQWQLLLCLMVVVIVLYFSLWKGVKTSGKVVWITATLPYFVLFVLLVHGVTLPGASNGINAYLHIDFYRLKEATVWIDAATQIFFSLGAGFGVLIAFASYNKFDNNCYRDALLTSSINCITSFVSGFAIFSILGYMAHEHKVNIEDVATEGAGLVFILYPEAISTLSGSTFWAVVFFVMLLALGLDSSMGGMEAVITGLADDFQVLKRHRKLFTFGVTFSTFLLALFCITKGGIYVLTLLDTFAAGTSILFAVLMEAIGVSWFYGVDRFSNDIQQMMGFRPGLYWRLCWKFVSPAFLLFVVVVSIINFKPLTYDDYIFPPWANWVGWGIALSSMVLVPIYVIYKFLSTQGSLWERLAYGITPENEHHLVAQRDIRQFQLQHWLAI

Row | SMILES | % Inhibition @ 1 μM (hNET)
1 | OC1([C@H](CN2CCNCC2)c2cccc(OC(F)(F)F)c2)CCCCC1 [Example 243, 1-{(1S)-2-piperazin-1-yl-1-[3-(trifluoromethoxy)phenyl]ethyl}cyclohexanol dihydrochloride] | 91%

Same assay, conditions: 1 μM test compound, [3H]NE uptake, read-out: % Inhibition @ 1 μM (hNET)

Row | inhibition at 1 µM | SMILES
2 | 2% | OC1(C(CN2CCNCC2)c2cccc(-c3ccc(Cl)c(Cl)c3)c2)CCC1 (stereo not drawn) [Example 153, 1-[1-(3′,4′-dichloro-1,1′-biphenyl-3-yl)-2-piperazin-1-ylethyl]cyclobutanol dihydrochloride]
3 | 54% | OC1(C(CN2CCNCC2)c2ccc(-c3ccccc3)cc2)CCCCC1 (stereo not drawn) [Example 157, 1-[1-(1,1′-biphenyl-4-yl)-2-piperazin-1-ylethyl]cyclohexanol dihydrochloride]
4 | 57% | CN1CCN(CC(c2ccc(-c3ccccc3)cc2)C2(O)CCCCC2)CC1 (stereo not drawn) [Example 158, 1-[1-(1,1′-biphenyl-4-yl)-2-(4-methylpiperazin-1-ylethyl]cyclohexanoldihydrochloride]
5 | 50% | N#Cc1cccc(C(CN2CCNCC2)C2(O)CCCCC2)c1 (stereo not drawn) [Example 160, 1-[1-(3-cyanophenyl)-2-piperazin-1-ylethyl]cyclohexanol dihydrochloride]
6 | 70% | CN1CCN(CC(c2cccc(C#N)c2)C2(O)CCCCC2)CC1 (stereo not drawn) [Example 161, 1-[1-(3-cyanophenyl)-2-(4-methylpiperazin-1-yl)ethyl]cyclohexanol dihydrochloride]
7 | 78% | C=Cc1cccc(C(CN2CCNCC2)C2(O)CCCCC2)c1 (stereo not drawn) [Example 162, 1-[2-piperazin-1-yl-1-(3-vinylphenyl)ethyl]cyclohexanol dihydrochloride]
8 | 17% | C=Cc1ccc(C(CN2CCNCC2)C2(O)CCCCC2)cc1 (stereo not drawn) [Example 163, 1-[2-piperazin-1-yl-1-(4-vinylphenyl)ethyl]cyclohexanol dihydrochloride]
9 | 56% | CC#Cc1ccc(C(CN2CCNCC2)C2(O)CCCCC2)cc1 (stereo not drawn) [Example 164, 1-[2-piperazin-1-yl-1-(4-prop-1-ynylphenyl)ethyl]cyclohexanol dihydrochloride]
10 | 13% | OC1(C(CN2CCNCC2)c2ccc(-c3ccccc3Cl)cc2)CCCCC1 (stereo not drawn) [Example 165, 1-[1-(2′-chloro-1,1′-biphenyl-4-yl)-2-piperazin-1-ylethyl]cyclohexanol dihydrochloride]
11 | 48% | OC1(C(CN2CCNCC2)c2ccc(-c3cccc(F)c3)cc2)CCCCC1 (stereo not drawn) [Example 166, 1-[1-(3′-fluoro-1,1′-biphenyl-4-yl)-2-piperazin-1-ylethyl]cyclohexanol dihydrochloride]
12 | 25% | OC1(C(CN2CCNCC2)c2ccc(-c3cccc(Cl)c3)cc2)CCCCC1 (stereo not drawn) [Example 167, 1-[1-(3′-chloro-1,1′-biphenyl-4-yl)-2-piperazin-1-ylethyl]cyclohexanol dihydrochloride]
13 | 66% | N#Cc1cccc(-c2ccc(C(CN3CCNCC3)C3(O)CCCCC3)cc2)c1 (stereo not drawn) [Example 168, 1-[1-(3′-cyano-1,1′-biphenyl-4-yl)-2-piperazin-1-ylethyl]cyclohexanol dihydrochloride]
14 | 69% | O=[N+]([O-])c1cccc(-c2ccc(C(CN3CCNCC3)C3(O)CCCCC3)cc2)c1 (stereo not drawn) [Example 169, 1-[1-(3′-nitro-1,1′-biphenyl-4-yl)-2-piperazin-1-ylethyl]cyclohexanol dihydrochloride]
15 | 19% | COc1cccc(-c2ccc(C(CN3CCNCC3)C3(O)CCCCC3)cc2)c1 (stereo not drawn) [Example 170, 1-[1-(3′-methoxy-1,1′-biphenyl-4-yl)-2-piperazin-1-ylethyl]cyclohexanol dihydrochloride]
16 | 32% | OC1(C(CN2CCNCC2)c2ccc(-c3cccc(OC(F)(F)F)c3)cc2)CCCCC1 (stereo not drawn) [Example 171, 1-{2-piperazin-1-yl-1-[3′-(trifluoromethoxy)-1,1′-biphenyl-4-yl]ethyl}cyclohexanol dihydrochloride]
17 | 55% | OC1(C(CN2CCNCC2)c2ccc(-c3ccc(Cl)cc3)cc2)CCCCC1 (stereo not drawn) [Example 172, 1-[1-(4′-chloro-1,1′-biphenyl-4-yl)-2-piperazin-1-ylethyl]cyclohexanol dihydrochloride]
18 | 35% | OC1(C(CN2CCNCC2)c2ccc(-c3ccc(Cl)c(Cl)c3)cc2)CCCCC1 (stereo not drawn) [Example 173, 1-[1-(3′,4′-dichloro-1,1′-biphenyl-4-yl)-2-piperazin-1-ylethyl]cyclohexanol dihydrochloride]
19 | 2% | OC1(C(CN2CCNCC2)c2ccc(-c3ccsc3)cc2)CCCCC1 (stereo not drawn) [Example 174, 1-[2-piperazin-1-yl-1-(4-thien-3-ylphenyl)ethyl]cyclohexanol dihydrochloride]
20 | 20% | CN1CCN(CC(c2ccc(-c3ccccc3Cl)cc2)C2(O)CCCCC2)CC1 (stereo not drawn) [Example 175, 1-[1-(2′-chloro-1,1′-biphenyl-4-yl)-2-(4-methylpiperazin-1-yl)ethyl]cyclohexanol dihydrochloride]
21 | 28% | CN1CCN(CC(c2ccc(-c3cccc(Cl)c3)cc2)C2(O)CCCCC2)CC1 (stereo not drawn) [Example 176, 1-[1-(3′-chloro-1,1′-biphenyl-4-yl)-2-(4-methylpiperazin-1-yl)ethyl]cyclohexanol dihydrochloride]
22 | 54% | CN1CCN(CC(c2ccc(-c3cccc(C#N)c3)cc2)C2(O)CCCCC2)CC1 (stereo not drawn) [Example 177, 1-[1-(3′-cyano-1,1′-biphenyl-4-yl)-2-(4-methylpiperazin-1-yl)ethyl]cyclohexanol dihydrochloride]
23 | 33% | CN1CCN(CC(c2ccc(-c3cccc([N+](=O)[O-])c3)cc2)C2(O)CCCCC2)CC1 (stereo not drawn) [Example 178, 1-[2-(4-methylpiperazin-1-yl)-1-(3′-nitro-1,1′-biphenyl-4-yl)ethyl]cyclohexanol dihydrochloride]
24 | 27% | COc1cccc(-c2ccc(C(CN3CCN(C)CC3)C3(O)CCCCC3)cc2)c1 (stereo not drawn) [Example 179, 1-[1-(3′-methoxy-1,1′-biphenyl-4-yl)-2-(4-methylpiperazin-1-yl)ethyl]cyclohexanol dihydrochloride]
25 | 47% | CN1CCN(CC(c2ccc(-c3ccc(F)cc3)cc2)C2(O)CCCCC2)CC1 (stereo not drawn) [Example 180, 1-[1-(4′-fluoro-1,1′-biphenyl-4-yl)-2-(4-methylpiperazin-1-yl)ethyl]cyclohexanol dihydrochloride]
26 | 31% | Cc1ccc(-c2ccc(C(CN3CCN(C)CC3)C3(O)CCCCC3)cc2)cc1 (stereo not drawn) [Example 181, 1-[1-(4′-methyl-1,1′-biphenyl-4-yl)-2-(4-methylpiperazin-1-yl)ethyl]cyclohexanol dihydrochloride]
27 | 43% | OC1(C(CN2CCNCC2)c2ccc(-c3cccc(Cl)c3)cc2)CCC1 (stereo not drawn) [Example 182, 1-[1-(3′-chloro-1,1′-biphenyl-4-yl)-2-piperazin-1-ylethyl]cyclobutanol dihydrochloride]
28 | 16% | OC1(C(CN2CCNCC2)c2ccc(-c3cccc(OC(F)(F)F)c3)cc2)CCC1 (stereo not drawn) [Example 183, 1-{2-piperazin-1-yl-1-[3′-(trifluoromethoxy)-1,1′-biphenyl-4-yl]ethyl}cyclobutanol dihydrochloride]
29 | 40% | OC1(C(CN2CCNCC2)c2ccc(-c3ccc(Cl)c(Cl)c3)cc2)CCC1 (stereo not drawn) [Example 184, 1-[1-(3′,4′-dichloro-1,1′-biphenyl-4-yl)-2-piperazin-1-ylethyl]cyclobutanol dihydrochloride]
30 | 27% | OC1(C(CN2CCNCC2)c2ccc(-c3cc(Cl)cc(Cl)c3)cc2)CCC1 (stereo not drawn) [Example 185, 1-[1-(3′,5′-dichloro-1,1′-biphenyl-4-yl)-2-piperazin-1-ylethyl]cyclobutanol dihydrochloride]

Same assay, conditions: MDCK-Net6, read-out: % Inhibition @ 1 μM (hNET), 1 μM test compound, [3H]NE uptake

Row | SMILES | inhibition at 1 µM
31 | CN1CCN(C[C@H](c2cccc(OC(F)(F)F)c2)C2(O)CCCCC2)CC1 [Example 245, 1-{(1S)-2-(4-methylpiperazin-1-yl)-1-[3-(trifluoromethoxy)phenyl]ethyl}cyclohexanol dihydrochloride] | 88%
32 | CN1CCN(C[C@@H](c2cccc(OC(F)(F)F)c2)C2(O)CCCCC2)CC1 [Example 246, 1-{(1R)-2-(4-methylpiperazin-1-yl)-1-[3-(trifluoromethoxy)phenyl]ethyl}cyclohexanol dihydrochloride] | 7.4%

Same assay, conditions: [3H]NE uptake, test range 1 to 10,000 nM

Row | pEC50 | SMILES
33 | 6.66 | CN1CCN(CC(c2cccc(C#N)c2)C2(O)CCCCC2)CC1 (stereo not drawn) [Example 161, 1-[1-(3-cyanophenyl)-2-(4-methylpiperazin-1-yl)ethyl]cyclohexanol dihydrochloride]
34 | 6.39 | C=Cc1cccc(C(CN2CCNCC2)C2(O)CCCCC2)c1 (stereo not drawn) [Example 162, 1-[2-piperazin-1-yl-1-(3-vinylphenyl)ethyl]cyclohexanol dihydrochloride]
35 | 6.74 | N#Cc1cccc(-c2ccc(C(CN3CCNCC3)C3(O)CCCCC3)cc2)c1 (stereo not drawn) [Example 168, 1-[1-(3′-cyano-1,1′-biphenyl-4-yl)-2-piperazin-1-ylethyl]cyclohexanol dihydrochloride]
36 | 6.07 | O=[N+]([O-])c1cccc(-c2ccc(C(CN3CCNCC3)C3(O)CCCCC3)cc2)c1 (stereo not drawn) [Example 169, 1-[1-(3′-nitro-1,1′-biphenyl-4-yl)-2-piperazin-1-ylethyl]cyclohexanol dihydrochloride]
